Data as given in ChEMBL document CHEMBL3627601, “Poly(amidoamine) dendrimers show carbonic anhydrase inhibitory activity against α-, β-, γ- and η-class enzymes” (Bioorg Med Chem, 2015).

Tests used:
[1] = Inhibition of Plasmodium falciparum eta-carbonic anhydrase preincubated for 15 mins by stopped-flow CO2 hydration assay
[2] = Inhibition of Candida glabrata beta-carbonic anhydrase preincubated for 15 mins by stopped-flow CO2 hydration assay; parameters: species or system Nakaseomyces glabratus
[3] = Inhibition of Porphyromonas gingivalis gamma-carbonic anhydrase preincubated for 15 mins by stopped-flow CO2 hydration assay
[4] = Inhibition of Leishmania donovani chagasi beta-carbonic anhydrase preincubated for 15 mins by stopped-flow CO2 hydration assay
[5] = Inhibition of Trypanosoma cruzi alpha-carbonic anhydrase preincubated for 15 mins by stopped-flow CO2 hydration assay
[6] = Inhibition of Porphyromonas gingivalis beta-carbonic anhydrase preincubated for 15 mins by stopped-flow CO2 hydration assay
[7] = Inhibition of Vibrio cholerae alpha-carbonic anhydrase preincubated for 15 mins by stopped-flow CO2 hydration assay
[8] = Inhibition of Cryptococcus neoformans beta-carbonic anhydrase preincubated for 15 mins by stopped-flow CO2 hydration assay

Compound	Ki [1]	Ki [2]	Ki [3]	Ki [4]	Ki [5]	Ki [6]	Ki [7]	Ki [8]
NS(=O)(=O)c1ccc(C(=O)NCCNC(=O)CCN(CCC(=O)NCCNC(=O)c2ccc(S(N)(=O)=O)cc2)CCN(CCC(=O)NCCNC(=O)c2ccc(S(N)(=O)=O)cc2)CCC(=O)NCCNC(=O)c2ccc(S(N)(=O)=O)cc2)cc1	69.7 nM	427 nM	405 nM	75.4 nM	17.7 nM	84.9 nM	47.2 nM	24 nM
NS(=O)(=O)c1ccc(C(=O)NCCNC(=O)CCN(CCNC(=O)CCN(CCC(=O)NCCN(CCC(=O)NCCNC(=O)c2ccc(S(N)(=O)=O)cc2)CCC(=O)NCCNC(=O)c2ccc(S(N)(=O)=O)cc2)CCN(CCC(=O)NCCN(CCC(=O)NCCNC(=O)c2ccc(S(N)(=O)=O)cc2)CCC(=O)NCCNC(=O)c2ccc(S(N)(=O)=O)cc2)CCC(=O)NCCN(CCC(=O)NCCNC(=O)c2ccc(S(N)(=O)=O)cc2)CCC(=O)NCCNC(=O)c2ccc(S(N)(=O)=O)cc2)CCC(=O)NCCNC(=O)c2ccc(S(N)(=O)=O)cc2)cc1	58.6 nM	342 nM	563 nM	85.6 nM	95.4 nM	77 nM	8.1 nM	83.6 nM
